Results from patent US11566007B2, “Ras inhibitors” (Revolution Medicines, Inc., priority 2019, dated 2023).
Several values for one entry are separate records, joined by “and”; a condition that tells them apart may be missing. Identical values can stand only once. Like-named read-outs stand apart in the source and are kept apart here.

Columns and labels:
KRAS G12S = KRAS G12S (Homo sapiens (Human), UniProt P01116+P62937, G12S); experiment: Ras-Raf (BRAF RBD) disruption / FRET / MOA assay, KRAS G12S; assay type: biochemical; details: Ras-Raf disruption/FRET/MOA assay; class symbols; read-out: KRAS G12S FRET data IC50
In short: (§1)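 Compounds, top final concentration 30 μM in 10-point 3-fold series, incubated 3 hours at 25° C with nucleotide-loaded Ras, cyclophilin A and BRAF RBD.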

KRAS WT = KRAS WT (Homo sapiens (Human), UniProt P01116+P62937); experiment: Ras-Raf (BRAF RBD) disruption / FRET / MOA assay, KRAS WT; assay type: biochemical; details: read-out: IC50* KRAS WT FRET data
In short: as §1

NRAS Q61R = NRAS Q61R (Homo sapiens (Human), UniProt P01111+P62937, Q61R); experiment: Ras-Raf (BRAF RBD) disruption / FRET / MOA assay, NRAS Q61R; assay type: biochemical; details: NRAS Q61R; Ras-Raf disruption/FRET/MOA assay; read-out: IC50* NRAS Q61R FRET data
In short: (§2)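 TR-FRET disruption of nucleotide-loaded Ras binding to BRAF RBD via compound-driven ternary complex with cyclophilin A. Compound as 10-point 3-fold series from 30 μM final, 3 h at 25° C, then anti-His Eu-W1024 (10 nM) and anti-GST allophycocyanin (50 nM) for 1.5 h. IC50 from decreased FRET ratio versus DMSO.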

NRAS Q61K = NRAS Q61K (Homo sapiens (Human), UniProt P01111+P62937, Q61K); experiment: Ras-Raf (BRAF RBD) disruption / FRET / MOA assay, NRAS Q61K; assay type: biochemical; details: NRAS Q61K; Ras-Raf disruption/FRET/MOA assay; read-out: IC50* NRAS Q61K FRET data
In short: as §2

KRAS Q61H = KRAS Q61H (Homo sapiens (Human), UniProt P01116+P62937, Q61H); experiment: Ras-Raf (BRAF RBD) disruption / FRET / MOA assay, KRAS Q61H; assay type: biochemical; details: Ras-Raf disruption/FRET/MOA assay; class symbols; read-out: KRAS Q61H FRET data IC50
In short: as §2

NCI-H358 (K-Ras G12C) = experiment: CellTiter-Glo cell viability assay, NCI-H358; assay type: cell-based, human; details: NCI-H358, 5-day treatment, class symbols, read-out: Additional H358 Cell Viability assay data (K-Ras G12C, IC50)
In short: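 Compounds were dispensed directly onto K-Ras mutant cells and incubated until day 5, then plates were equilibrated to room temperature for about 30 minutes before CellTiter-Glo luminescence. Signals were normalized as (sample/average DMSO)*100 and fitted by four-parameter logistic fit.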

K-Ras G13C = K-Ras G13C (Homo sapiens (Human), UniProt P01116+P62937, G13C); experiment: Ras-Raf (BRAF RBD) disruption / FRET / MOA assay, KRAS G13C; assay type: biochemical; details: KRAS G13C; Ras-Raf disruption/FRET/MOA assay; read-out: IC50* KRAS G13C FRET data
In short: as §1

Sequence of NRAS Q61K (P01111 whole entry Q61K): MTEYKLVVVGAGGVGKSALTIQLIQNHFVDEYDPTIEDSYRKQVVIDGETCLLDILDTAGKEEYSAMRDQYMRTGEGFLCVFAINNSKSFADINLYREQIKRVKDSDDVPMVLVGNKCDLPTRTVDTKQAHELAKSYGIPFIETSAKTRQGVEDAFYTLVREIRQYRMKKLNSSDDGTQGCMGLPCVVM
Sequence of NRAS Q61K (P62937 whole entry): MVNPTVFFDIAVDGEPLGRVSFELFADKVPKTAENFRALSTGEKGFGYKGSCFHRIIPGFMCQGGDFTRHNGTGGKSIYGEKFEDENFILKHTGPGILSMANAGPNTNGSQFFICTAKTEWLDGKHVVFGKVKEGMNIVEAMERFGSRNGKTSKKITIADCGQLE
Sequence of KRAS G12S (P01116-2 other isoform, or with tags, fused parts or gaps G12S): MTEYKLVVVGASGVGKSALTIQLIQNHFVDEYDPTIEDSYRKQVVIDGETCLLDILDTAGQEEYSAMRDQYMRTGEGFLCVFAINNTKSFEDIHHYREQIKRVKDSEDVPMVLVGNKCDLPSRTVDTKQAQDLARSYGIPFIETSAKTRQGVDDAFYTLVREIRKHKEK
Sequence of KRAS G12S (P62937 whole entry): as the sequence (P62937 whole entry) above
Sequence of KRAS WT (P01116-2 other isoform, or with tags, fused parts or gaps): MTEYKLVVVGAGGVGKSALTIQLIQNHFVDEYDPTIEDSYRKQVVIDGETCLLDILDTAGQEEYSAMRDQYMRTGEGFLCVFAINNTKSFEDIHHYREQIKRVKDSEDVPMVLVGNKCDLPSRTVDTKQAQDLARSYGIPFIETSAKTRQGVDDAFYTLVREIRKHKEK
Sequence of KRAS WT (P62937 whole entry): as the sequence (P62937 whole entry) above
Sequence of NRAS Q61R (P01111 whole entry Q61R): as the sequence (P01111 whole entry Q61K) above, with K61R counted along it
Sequence of NRAS Q61R (P62937 whole entry): as the sequence (P62937 whole entry) above
Sequence of KRAS Q61H (P01116-2 other isoform, or with tags, fused parts or gaps Q61H): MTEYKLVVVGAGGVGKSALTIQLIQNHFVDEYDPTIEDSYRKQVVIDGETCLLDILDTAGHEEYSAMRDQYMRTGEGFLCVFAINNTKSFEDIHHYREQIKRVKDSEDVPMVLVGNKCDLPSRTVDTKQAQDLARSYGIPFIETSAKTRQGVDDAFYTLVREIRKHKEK
Sequence of KRAS Q61H (P62937 whole entry): as the sequence (P62937 whole entry) above
Sequence of K-Ras G13C (P01116-2 other isoform, or with tags, fused parts or gaps G13C): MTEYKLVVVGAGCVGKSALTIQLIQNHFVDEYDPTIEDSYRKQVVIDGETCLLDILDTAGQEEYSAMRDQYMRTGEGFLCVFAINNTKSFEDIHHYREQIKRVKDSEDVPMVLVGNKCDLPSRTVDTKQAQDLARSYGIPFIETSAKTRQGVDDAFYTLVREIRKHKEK
Sequence of K-Ras G13C (P62937 whole entry): as the sequence (P62937 whole entry) above

Row | SMILES | IC50 (KRAS G12S) | IC50 (KRAS WT) | IC50 (NRAS Q61R) [nM] | IC50 (NRAS Q61K) [nM] | IC50 (KRAS Q61H) [nM] | IC50 (NCI-H358 (K-Ras G12C); Homo sapiens, NCI-H358, 120 h) [nM] | IC50 (NCI-H358 (K-Ras G12C)) [nM] | IC50 (K-Ras G13C)
1 | C=CC(=O)N1CC[C@H](C(=O)N(C)[C@H](C(=O)N[C@H]2Cc3cc(O)cc(c3)-c3ccc4c(c3)c(c(-c3cc(C)ccc3[C@H](C)OC)n4CC)CC(C)(C)COC(=O)[C@@H]3CCCN(N3)C2=O)C(C)C)C1 (atropisomer, axis not shown) [Example A167] | 1000 to 10000 nM and 10 to 100 nM | 1000 to 10000 nM and 10 to 100 nM | 100 to 1000 | 100 to 1000 | 10 to 100 | 10 to 100 | < 10 | 10 to 100 nM and 1000 to 10000 nM
2 | CC#CC(=O)N1CCC(C(=O)N(C)[C@H](C(=O)N[C@H]2Cc3nc(cs3)-c3ccc4c(c3)c(c(-c3cccnc3[C@H](C)OC)n4CC)CC(C)(C)COC(=O)[C@@H]3CCCN(N3)C2=O)C(C)C)C1 (atropisomer, axis not shown) [Example A168] | 1000 to 10000 nM | 1000 to 10000 nM | 1000 to 10000 | 1000 to 10000 | 1000 to 10000 | 10 to 100 | – | 1000 to 10000 nM
3 | C=CC(=O)N1CC[C@H](C(=O)N(C)[C@H](C(=O)N[C@H]2Cc3cccc(c3)-c3ccc4c(c3)c(c(-c3cccnc3[C@H](C)OC)n4CC(F)F)CC(C)(C)COC(=O)[C@@H]3CCCN(N3)C2=O)C(C)C)C1 (atropisomer, axis not shown) [Example A335] | 1000 to 10000 nM | 1000 to 10000 nM | 1000 to 10000 | 1000 to 10000 | 1000 to 10000 | 10 to 100 | – | 1000 to 10000 nM
4 | C=CC(=O)N1CC[C@H](C(=O)N(C)[C@H](C(=O)N[C@H]2Cc3cc(cc(C(F)F)c3)-c3ccc4c(c3)c(c(-c3cccnc3[C@H](C)OC)n4CC)CC(C)(C)COC(=O)[C@@H]3CCCN(N3)C2=O)C(C)C)C1 (atropisomer, axis not shown) [Example A341, (3S)-1-acryloyl-N-((2S)-1-(((6^3S,4S)-2^5-(difluoromethyl)-1^1-ethyl-1^2-(2-((S)-1-methoxyethyl)pyridin-3-yl)-10,10-dimethyl-5,7-dioxo-6^1,6^2,6^3,6^4,6^5,6^6-hexahydro-1^1H-8-oxa-1(5,3)-indola-6(1,3)-pyridazina-2(1,3)-benzenacycloundecaphane-4-yl)amino)-3-methyl-1-oxobutan-2-yl)-N-methylpyrrolidine-3-carboxamide] | 1000 to 10000 nM | 1000 to 10000 nM | 1000 to 10000 | 1000 to 10000 | 100 to 1000 | 10 to 100 | – | 100 to 1000 nM
5 | C=CC(=O)N1CC(OC[C@H](C(=O)N[C@H]2Cc3cccc(c3)-c3ccc4c(c3)c(c(-c3cccnc3[C@H](C)OC)n4CC(F)(F)F)CC(C)(C)COC(=O)[C@@H]3CCCN(N3)C2=O)C(C)C)C1 (atropisomer, axis not shown) [Example A344] | 1000 to 10000 nM | 1000 to 10000 nM | 1000 to 10000 | 1000 to 10000 | 100 to 1000 | < 10 | – | 100 to 1000 nM
6 | C=CC(=O)N1CC(OC[C@H](C(=O)N[C@H]2Cc3cc(cc(C(F)F)c3)-c3ccc4c(c3)c(c(-c3cccnc3[C@H](C)OC)n4CC)CC(C)(C)COC(=O)[C@@H]3CCCN(N3)C2=O)C(C)C)C1 (atropisomer, axis not shown) [Example A345] | > 10000 nM | > 10000 nM | > 10000 | > 10000 | 1000 to 10000 | 100 to 1000 | – | 1000 to 10000 nM
7 | C=CC(=O)N1CC2(COCCN2C(=O)N(C)[C@H](C(=O)N[C@H]2Cc3nc(cs3)-c3ccc4c(c3)c(c(-c3cccnc3[C@H](C)OC)n4CC)CC(C)(C)COC(=O)[C@@H]3CCCN(N3)C2=O)C(C)C)C1 (atropisomer, axis not shown) [Example A352] | > 10000 nM | 1000 to 10000 nM | 1000 to 10000 | 1000 to 10000 | 1000 to 10000 | < 10 | – | > 10000 nM
8 | C=CC(=O)N1CC[C@@]2(C1)CN(C(=O)N(C)[C@H](C(=O)N[C@H]1Cc3nc(cs3)-c3ccc4c(c3)c(c(-c3cccnc3[C@H](C)OC)n4CC)CC(C)(C)COC(=O)[C@@H]3CCCN(N3)C1=O)C(C)C)CCO2 (atropisomer, axis not shown) [Example A353] | 100 to 1000 nM | 100 to 1000 nM | 100 to 1000 | 10 to 100 | 10 to 100 | 10 to 100 | – | 100 to 1000 nM
9 | C=CC(=O)NC[C@H]1CCN1C(=O)N(C)[C@H](C(=O)N[C@H]1Cc2nc(cs2)-c2ccc3c(c2)c(c(-c2cccnc2[C@H](C)OC)n3CC)CC(C)(C)COC(=O)[C@@H]2CCCN(N2)C1=O)C(C)C (atropisomer, axis not shown) [Example A356] | 1000 to 10000 nM | 100 to 1000 nM | 100 to 1000 | 100 to 1000 | 100 to 1000 | < 10 | – | 100 to 1000 nM
10 | C=C(C)C(=O)N1CC(N(C)C(=O)N(C)[C@H](C(=O)N[C@H]2Cc3nc(cs3)-c3ccc4c(c3)c(c(-c3cccnc3[C@H](C)OC)n4CC)CC(C)(C)COC(=O)[C@@H]3CCCN(N3)C2=O)C(C)C)C1 (atropisomer, axis not shown) [Example A360] | 100 to 1000 nM | 100 to 1000 nM | 100 to 1000 | 100 to 1000 | 100 to 1000 | 10 to 100 | – | 100 to 1000 nM
11 | CCn1c(-c2cccnc2[C@H](C)OC)c2c3cc(ccc31)-c1csc(n1)C[C@H](NC(=O)[C@H](C(C)C)N(C)C(=O)N(C)C1CN(C(=O)/C=C/CN(C)C)C1)C(=O)N1CCC[C@H](N1)C(=O)OCC(C)(C)C2 (atropisomer, axis not shown) [Example A361] | 100 to 1000 nM | 100 to 1000 nM | 100 to 1000 | 100 to 1000 | 100 to 1000 | 10 to 100 | – | 100 to 1000 nM
12 | CCn1c(-c2cccnc2[C@H](C)OC)c2c3cc(ccc31)-c1csc(n1)C[C@H](NC(=O)CN1CC[C@@]3(CCN(C(=O)C#CC(C)(C)N4CCC4)C3)C1)C(=O)N1CCC[C@H](N1)C(=O)OCC(C)(C)C2 (atropisomer, axis not shown) [Example A364] | 1000 to 10000 nM | 1000 to 10000 nM | 1000 to 10000 | 1000 to 10000 | 1000 to 10000 | 100 to 1000 | – | 1000 to 10000 nM
13 | CCn1c(-c2cccnc2[C@H](C)OC)c2c3cc(ccc31)-c1csc(n1)C[C@H](NC(=O)CCO[C@@H]1CCN(C(=O)C#CC(C)(C)N3CCC3)C1)C(=O)N1CCC[C@H](N1)C(=O)OCC(C)(C)C2 (atropisomer, axis not shown) [Example A366] | 1000 to 10000 nM | 1000 to 10000 nM | 1000 to 10000 | 1000 to 10000 | 100 to 1000 | 100 to 1000 | – | 100 to 1000 nM
14 | C=CC(=O)N1CC[C@H](C(=O)N(C)[C@H](C(=O)N[C@H]2Cc3cc(cc(C(F)F)c3)-c3ccc4c(c3)c(c(-c3cccnc3[C@H](C)OC)n4CC(F)(F)F)CC(C)(C)COC(=O)[C@@H]3CCCN(N3)C2=O)C(C)C)C1 (atropisomer, axis not shown) [Example A372] | 1000 to 10000 nM | 1000 to 10000 nM | 1000 to 10000 | 1000 to 10000 | 100 to 1000 | 10 to 100 | – | 100 to 1000 nM
15 | CCn1c(-c2cccnc2[C@H](C)OC)c2c3cc(ccc31)N1CCO[C@@H](C[C@H](NC(=O)[C@@H](COC3CN(C(=O)C#CC(C)(C)N(C)C)C3)C(C)C)C(=O)N3CCC[C@H](N3)C(=O)OCC(C)(C)C2)C1 (atropisomer, axis not shown) [Example A377, (2R)-2-(((1-(4-(dimethylamino)-4-methylpent-2-ynoyl)azetidin-3-yl)oxy)methyl)-N-((2^2S,6^3S,4S)-1^1-ethyl-1^2-(2-((S)-1-methoxyethyl)pyridin-3-yl)-10,10-dimethyl-5,7-dioxo-6^1,6^2,6^3,6^4,6^5,6^6-hexahydro-1^1H-8-oxa-2(4,2)-morpholina-1(5,3)-indola-6(1,3)-pyridazinacycloundecaphane-4-yl)-3-methylbutanamide] | > 10000 nM | > 10000 nM | > 10000 | > 10000 | > 10000 | < 10 | – | 1000 to 10000 nM
16 | CO[C@@H](C)c1ncccc1-c1c2c3cc(ccc3n1CC(F)(F)F)-c1csc(n1)C[C@H](NC(=O)CCOC1CN(C(=O)C#CC(C)(C)N(C)C)C1)C(=O)N1CCC[C@H](N1)C(=O)OCC(C)(C)C2 (atropisomer, axis not shown) [Example A380] | 1000 to 10000 nM | 1000 to 10000 nM | 1000 to 10000 | 1000 to 10000 | 1000 to 10000 | < 10 | – | 100 to 1000 nM
